Measured values taken from ChEMBL document CHEMBL4665649, “Resistance mechanisms and cross-resistance for a pyridine-pyrimidine amide inhibitor of microtubule polymerization” (Bioorg Med Chem Lett, 2019).
Active and inactive are the calls of the source. The rule behind the calls is not given here.

Legend:
A2780 [1] = assay: Antiproliferative activity against D4-9-31 resistance human A2780 cells assessed as reduction in mitochondrial respiration; assay type: functional, cell-based
A2780 [2] = assay: Antiproliferative activity against D4-9-31 resistance human A2780 cells incubated for 72 hrs by ATPlite reagent based assay; assay type: functional, cell-based; details: A2780, 72 h
A2780 [3] = assay: Antiproliferative activity against human A2780 cells incubated for 72 hrs by live-cell imaging based assay; assay type: functional; details: A2780, 72 h
A2780 [4] = assay: Antiproliferative activity against human A2780 cells incubated for 72 hrs by ATPlite reagent based assay; assay type: functional, cell-based; details: A2780, 72 h
A2780 [5] = assay: Antiproliferative activity against human A2780 cells assessed as reduction in mitochondrial respiration; assay type: functional, cell-based

Row | EC50 (A2780 [3]) [nM] | SMILES | Activity (A2780 [1]) | EC50 (A2780 [2]) [nM] | EC50 (A2780 [4]) [nM] | Activity (A2780 [5])
1 | 12 | Cc1ncc(C(=O)Nc2ccc(-c3cccc(S(=O)(=O)C4CC4)c3)cn2)cn1 | Active | 23 | 9.9 | Active
2 | – | COc1cc2c(c(OC)c1OC)-c1ccc(OC)c(=O)cc1[C@@H](NC(C)=O)CC2 [COLCHICINE] | – | 8.7 | 9.2 | –
3 | – | O=C(Nc1ccncc1)C(=O)c1cn(Cc2ccc(Cl)cc2)c2ccccc12 [INDIBULIN] | – | 20 | 19 | –
4 | – | CC(=O)O[C@H]1C(=O)[C@@]2(C)[C@H]([C@H](OC(=O)c3ccccc3)[C@]3(O)C[C@H](OC(=O)[C@H](O)[C@@H](NC(=O)c4ccccc4)c4ccccc4)C(C)=C1C3(C)C)[C@]1(OC(C)=O)CO[C@@H]1C[C@@H]2O [PACLITAXEL] | – | 2.4 | 2.5 | –
5 | – | C/C(=C\c1csc(C)n1)[C@@H]1C[C@@H]2O[C@]2(C)CCC[C@H](C)[C@H](O)[C@@H](C)C(=O)C(C)(C)[C@@H](O)CC(=O)O1 [PATUPILONE] | – | 4 | 5.2 | –
6 | – | CC[C@]1(O)C[C@H]2CN(CCc3c([nH]c4ccccc34)[C@@](C(=O)OC)(c3cc4c(cc3OC)N(C=O)[C@H]3[C@@](O)(C(=O)OC)[C@H](OC(C)=O)[C@]5(CC)C=CCN6CC[C@]43[C@@H]65)C2)C1 [VINCRISTINE] | – | 3.9 | 3.4 | –
